We go through five molecules from US8828930B2, “Hepatitis C virus NS3 protease inhibitors” (Merck Sharp & Dohme Corp., priority 2009, dated 2014).

Like-named read-outs stand apart in the source and are kept apart here.

Series [1] deals with NS3/4A protease gt 1b A156V (Hepatitis C virus genotype 1b, UniProt P26663, A1182V). Nature of the series: HCV NS3 protease time-resolved fluorescence (TRF) assay, NS3/4A inhibitory activity (Ki), gt 1b A156V. Format: biochemical. The protocol: (§1) The HCV NS3 protease inhibitory activity of the present compounds may be tested using assays known in the art. One such assay is HCV NS3 protease time-resolved fluorescence (TRF) assay as described below and in WO 2006/102087. Other examples of such assays are described in, for example, WO 2005/046712. HCV NS3 protease inhibitors, such as those described herein have a Ki less than 50 μM, such as less than 10 μM, and less than 100 nM. Ki is determined by an NS3 protease assay. The assay is performed in a final volume of 100 μl in assay buffer containing 50 mM HEPES, pH 7.5, 150 mM NaCl, 15% glycerol, 0.15% TRITON X-100, 10 mM DTT, and 0.1% PEG 8000. NS3 protease is preincubated with various concentrations of inhibitors in DMSO for 30 minutes. The reaction is initiated by adding the TRF peptide substrate (final concentration 100 nM). NS3 mediated hydrolysis of the substrate is quenched after 1 hour at room temperature with 100 μl of 500 mM MES, pH 5.5. Product fluorescence is detected using either a VICTOR V2 or FUSION fluorophotometer (PERKIN ELMER LIFE AND ANALYTICAL SCIENCES) with excitation at 340 nm and emission at 615 nm with a 400 μs delay. Testing concentrations of different enzyme forms are selected to result in a signal to background ratio (SIB) of 10-30. IC50 values are derived using a standard four-parameter fit to the data. Ki values are derived from IC50 values using the following formula, IC50=Ki(1+[S]/KM), Eqn (1), where [S] is the concentration of substrate peptide in the reaction and KM is the Michaelis constant. See Paola Gallinari et al., Modulation of Hepatitis C Virus NS3 Protease and Helicase Activities through the Interaction with NS4A, 38 BIOCHEM. 5620 (1999); Paola Gallinari et al., Multiple Enzymatic Activities Associated with Recombinant NS3 Protein of Hepatitis C Virus, 72(8) J. VIROLOGY 6758 (1998); Mariana Taliani et al., A Continuous Assay of Hepatitis C Virus Protease Based on Resonance Energy Transfer Depsipeptide Substrates, 240 ANAL. BIOCHEM. 60 (1996).
(§2) This NS3 protease assay was performed in a final volume of 100 μl assay buffer containing 50 mM HEPES, pH 7.5, 150 mM NaCl, 15% glycerol, 0.15% TRITON X-100, 10 mM DTT, and 0.1% PEG 8000. NS3/4A protease was pre-incubated with various concentrations of inhibitors in DMSO for 30 minutes. The reaction was initiated by adding the TRF peptide substrate (final concentration 100 nM). NS3 mediated hydrolysis of the substrate was quenched after 1 hour at RT with 100 μl of 500 mM MES, pH 5.5. Product fluorescence was detected using either a V1CTOR V2 or FUSION fluorophotometer (PERKIN ELMER LIFE AND ANALYTICAL SCIENCES) with excitation at 340 nm and emission at 615 nm with a 400 us delay. Testing concentrations of different enzyme forms were selected to result in a signal to background ratio (SIB) of 10-30. IC50 values were derived using a standard four-parameter fit to the data. K, values are derived from IC50 values using the following formula, IC50=Ki(1+[S]/KM), Eqn (1), where [S] is the concentration of substrate peptide in the reaction and KM is the Michaelis constant. See Paola Gallinari et al., Modulation of Hepatitis C Virus NS3 Protease and Helicase Activities through the Interaction with NS4A, 38 BIOCHEM. 5620 (1999); Paola Gallinari et al., Multiple Enzymatic Activities Associated with Recombinant NS3 Protein of Hepatitis C Virus, 72(8) J. VIROLOGY 6758 (1998); Mariana Milani et al., A Continuous Assay of Hepatitis C Virus Protease Based on Resonance Energy Transfer Depsipeptide Substrates, 240 ANAL. BIOCHEM. 60 (1996); Shi-Shan Mao et al., A time-resolved, internally quenched fluorescence assay to characterize inhibition of hepatitis C virus nonstructural protein 3-4A protease at low enzyme concentrations, 373 ANALYTICAL BIOCHEMISTRY 1 (2008). Measuring Compound Inhibitory Potency (Replicon EC50 (nM))

The target of a further series is NS3/4A protease gt 3a (Hepatitis C virus genotype 3a, UniProt Q81258). Nature of the series: HCV NS3 protease time-resolved fluorescence (TRF) assay, NS3/4A inhibitory activity (Ki), gt 3a. It counts as biochemical. The conditions noted are these: NS3/4A enzyme. As for the experimental part:
as §1, §2

For a further series, the target named is NS3/4A protease gt 1b (Hepatitis C virus genotype 1b, UniProt P26663). Description: HCV NS3 protease time-resolved fluorescence (TRF) assay, NS3/4A inhibitory activity (Ki), gt 1b. It counts as biochemical. The conditions noted are these: NS3/4A enzyme. As for the experimental part:
as §1, §2

Series [2] can be described thus: Plasma and liver concentrations and pharmacokinetics (Rat PK). It counts as in vivo. Set-up: Rat PK 5 mpk AUC: unit not given here. The conditions noted are these: for concentration at 4 h: 5 mg/kg, 5 mpk, liver concentration at 4 h; for Rat PK 5 mpk AUC: area under the plasma concentration/time curve. As for the experimental part:
Test compounds were dissolved in a suitable dosing vehicle for i.v. administration (e.g., 20%:60%:20% DMSO:PEG400:H2O) or per oral administration (e.g., 10% POLYSORBATE80:90% H2O or 100% PEG400). Animals were administered (n=2 or 3) using a crossover study design for non-rodents. Plasma samples were collected at time points between 2 minutes and 24 hours, and compound levels were determined by RP-LC/MS/MS. Liver samples were collected post-mortem in rat. Liver samples were weighed, homogenized, and diluted using techniques known to those skilled in the art, and compound levels were determined by RP-LC/MS/MS.
Pharmacokinetic parameters were calculated based on non-compartmental analysis (e.g., using WATSON, WINNOLIN). Predose concentrations that were below the limit of quantitation (BLQ) were assigned a value of 0, Standard pharmacokinetic parameters CLp, Vdss, half-life (only for IV), % F, Cmax, Tmax, AUC0-last, AUC0-infinity were calculated. AUC values were calculated using linear trapezoidal method for ascending concentrations and the log trapezoidal method for descending concentrations.

For the next series, the system named is HCV gt 1b replicon. Nature of the series: HCV replicon assay, compound inhibitory potency (Replicon EC50). Format: cell-based. The conditions noted are these: Hepatitis C virus, GT1B. The protocol:
Measurement of inhibition by compounds was performed using the HCV replicon system. Several different replicons encoding different HCV genotypes or mutations were used. In addition, potency measurements were made using different formats of the replicon assay, including different ways of measurements and different plating formats. See Jan M. Vrolijk et al., A replicon-based bioassay for the measurement of interferons in patients with chronic hepatitis C, 110 J. VIROLOGICAL METHODS 201 (2003); Steven S. Carroll et al., Inhibition of Hepatitis C Virus RNA Replication by 2′-Modified Nucleoside Analogs, 278(14) J. BIOLOGICAL CHEMISTRY 11979 (2003). However, the underlying principles are common to all of these determinations, and are outlined below.
Stable neomycin phosphotransferase encoding replicon-harboring cell lines were used, so all cell lines were maintained under G418 selection prior to the assay. In some cases the cell lines encoded a luciferase:NEO FUSION and could be assayed either directly by determination of RNA copy number, or indirectly through measurement of the luciferase activity.
To initiate an assay, replicon cells were plated in the presence of a dilution series of test compound in the absence of G418. Typically, the assays were performed in a 96-well plate format for manual operation, or a 384-well plate in an automated assay. Replicon cells and compound were incubated for 24 to 48 hours, depending on the assay. At the end of the assay, cells are washed free of media and compound and then lysed. For direct quantitation, RNA levels were measured by 32P-probe hybridization and protection, or in a TAQMAN-based assay and normalized to cellular cyclophilin A RNA levels. In some cases, luciferase activity was measured using a conventional luciferase assay. In all cases, EC50 determinations were calculated as a percent of a DMSO control by fitting the data to a four-parameter fit function.

Setting [3] is: 10% fetal bovine serum, read-out: gt 1b Replicon EC50 10% FBS.
The mark [4] stands for this setting: 50% normal human serum, read-out: gt 1b Replicon EC50 50% NHS.

With `COc1ccc2nc3c(nc2c1)O[C@@H]1C[C@H]2C(=O)N[C@]4(C(=O)NS(=O)(=O)C5(C)CC5)C[C@H]4/C=C\CCCCC[C@H](NC(=O)O[C@]4(C)C[C@H]4CCCCC3)C(=O)N2C1` [Example 6, (3R,20R,22R,26S,32Z,34S,36R,39S)-9-Methoxyl-22-methyl-N-[(1-methylcyclopropyl)sulfonyl]-24,38,40-trioxo-4,23-dioxa-1,6,13,25,37-pentaazaheptacyclo[24.13.1.1^3,39.0^5,14.0^7,12.0^20,22.0^34,36]hentetraconta-5,7,9,11,13,32-hexaene-36-carboxamide], the Ki in series [1] was determined as 0.6 nM; at NS3/4A protease gt 3a, 0.32 nM; at NS3/4A protease gt 1b, 0.03 nM. For the same molecule, the concentration at 4 h in series [2] amounted to 24 µM. Also, in series [2], the “Rat PK 5 mpk AUC” value is 0.16. Moreover, the figures for the EC50 with HCV gt 1b replicon (setting [3]) and with HCV gt 1b replicon (setting [4]) were 1 nM and 4 nM, respectively.
As to `COc1ccc2nc3c(nc2c1)O[C@@H]1C[C@H]2C(=O)N[C@]4(C(=O)NS(=O)(=O)C5(C)CC5)C[C@H]4/C=C\CCCCC[C@H](NC(=O)O[C@@H]4CCC[C@H]4CCCCC3)C(=O)N2C1` [Example 2, (3R,20R,24R,28S,34Z,36S,38R,41S)-9-Methoxy-N-[(1-methylcyclopropyl)sulfonyl]-26,40,42-trioxo-4,25-dioxa-1,6,13,27,39-pentaazaheptacyclo[26.13.1.1^3,41.0^5,14.0^7,12.0^20,24.0^36,38]tritetraconta-5,7,9,11,13,34-hexaene-38-carboxamide], the figures for the Ki (in series [1]; on NS3/4A protease gt 3a; at NS3/4A protease gt 1b) were 1.1 nM, 0.48 nM and 0.05 nM, respectively. In addition, the concentration at 4 h in series [2] amounted to 43 µM. For the same molecule, the “Rat PK 5 mpk AUC” value in series [2] amounted to 0.55. The EC50 in the series on HCV gt 1b replicon (setting [3]) was found to be 2 nM; in the series on HCV gt 1b replicon (setting [4]), 10 nM.
`COc1ccc2nc3c(nc2c1)O[C@@H]1C[C@H]2C(=O)N[C@]4(C(=O)NS(=O)(=O)C5CC5)C[C@H]4/C=C\CCCCC[C@H](NC(=O)O[C@]4(C)C[C@H]4CCCCC3)C(=O)N2C1` [Example 5, (3R,20R,22R,26S,32Z,34S,36R,39S)—N-(Cyclopropylsulfonyl)-9-methoxy-22-methyl-24,38,40-trioxo-4,23-dioxa-1,6,13,25,37-pentaazaheptacyclo[24.13.1.1^3,39.0^5,14.0^7,12.0^20,22.0^34,36]hentetraconta-5,7,9,11,13,32-hexaene-36-carboxamide]: the Ki in series [1] came to 0.7 nM; at NS3/4A protease gt 3a, 0.25 nM; at NS3/4A protease gt 1b, 0.02 nM. In series [2], this molecule gave a concentration at 4 h of 20 µM. Also, the “Rat PK 5 mpk AUC” value in series [2] was found to be 0.18. For the same molecule, the results for the EC50 with HCV gt 1b replicon (setting [3]) and with HCV gt 1b replicon (setting [4]) were 1 nM and 6 nM, respectively.
Regarding `COc1ccc2nc3c(nc2c1)O[C@@H]1C[C@H]2C(=O)N[C@]4(C(=O)NS(=O)(=O)C5CC5)C[C@H]4/C=C\CCCCC[C@H](NC(=O)O[C@@H]4C[C@H]4CCCCC3)C(=O)N2C1` [Example 3, (3R,20R,22R,26S,32Z,34S,36R,39S)—N-(Cyclopropylsulfonyl)-9-methoxy-24,38,40-trioxo-4,23-dioxa-1,6,13,25,37-pentaazaheptacyclo[24.13.1.1^3,39.0^5,14.0^7,12.0^20,22.0^34,36]hentetraconta-5,7,9,11,13,32-hexaene-36-carboxamide], the Ki in series [1] was determined as 0.8 nM; on NS3/4A protease gt 3a, 0.24 nM; at NS3/4A protease gt 1b, 0.02 nM. Also, the concentration at 4 h in series [2] came to 13 µM. In addition, in series [2], the “Rat PK 5 mpk AUC” value amounted to 0.19. Also, the EC50 in the series with HCV gt 1b replicon (setting [3]) stood at 2 nM; in the series with HCV gt 1b replicon (setting [4]), 8 nM.
For `COc1ccc2nc3c(nc2c1)O[C@@H]1C[C@H]2C(=O)N[C@]4(C(=O)NS(=O)(=O)C5CC5)C[C@H]4/C=C\CCCCC[C@H](NC(=O)O[C@@H]4CCC[C@H]4CCCCC3)C(=O)N2C1` [Example 1, (3R,20R,24R,28S,34Z,36S,38R,41S)—N-(Cyclopropylsulfonyl)-9-methoxy-26,40,42-trioxo-4,25-dioxa-1,6,13,27,39-pentaazaheptacyclo[26.13.1.1^3,41.0^5,14.0^7,12.0^20,24,0^36,38]tritetraconta-5,7,9,11,13,34-hexaene-38-carboxamide], the Ki was determined as 1.6 nM in series [1], 0.45 nM on NS3/4A protease gt 3a and 0.16 nM at NS3/4A protease gt 1b. For the same molecule, the concentration at 4 h in series [2] was 3.6 µM. For the same molecule, the “Rat PK 5 mpk AUC” value in series [2] stood at 0. Further, the EC50 amounted to 2 nM in the series on HCV gt 1b replicon (setting [3]) and 9 nM in the series with HCV gt 1b replicon (setting [4]).
